Data taken from ChEMBL document CHEMBL4480461, “Karamomycins A-C: 2-Naphthalen-2-yl-thiazoles from Nonomuraea endophytica” (J Nat Prod, 2019).
The source made the active and inactive calls.

What was measured:
Assay type in all cases: functional, organism-based
[1] = tested on: Staphylococcus aureus; assay: Antimicrobial activity against Staphylococcus aureus at 40 ug/disc by agar diffusion method
[2] = tested on: Bacillus subtilis; assay: Antimicrobial activity against Bacillus subtilis ATCC 6051 at 40 ug/disc by agar diffusion method
[3] = tested on: Streptomyces viridochromogenes; assay: Antimicrobial activity against Streptomyces viridochromogenes Tue57 at 40 ug/disc by agar diffusion method
[4] = tested on: Escherichia coli; assay: Antimicrobial activity against Escherichia coli at 40 ug/disc by agar diffusion method
[5] = tested on: Rhizomucor miehei; assay: Antimicrobial activity against Mucor miehei Tu 284 at 40 ug/disc by agar diffusion method
[6] = tested on: Candida albicans; assay: Antimicrobial activity against Candida albicans at 40 ug/disc by agar diffusion method
[7] = tested on: Chlorella vulgaris; assay: Antimicrobial activity against Chlorella vulgaris at 40 ug/disc by agar diffusion method
[8] = tested on: Chlorella sorokiniana; assay: Antimicrobial activity against Chlorella sorokiniana at 40 ug/disc by agar diffusion method
[9] = tested on: Desmodesmus subspicatus; assay: Antimicrobial activity against Scenedesmus subspicatus at 40 ug/disc by agar diffusion method

Measured: Activity

COc1cc(C2=N[C@H](CO)CS2)c(O)c2ccccc12
inactive: all assays above

COc1cc(C2=N[C@H]([C@@H]3SC[C@H]4[C@@H]5SC[C@](C)(C(=O)N43)N5C)CS2)c(O)c2ccccc12
inactive: all assays above

COc1cc(-c2nc(CO)cs2)c(O)c2ccccc12
inactive: all assays above
